# Laboratory results reported in US6215002A, “Pyrrolopyrrolone derivatives as inhibitors of neutrophil elastase” (priority 1996, dated 2001).
# Target: T1, human neutrophil elastase (Homo sapiens, UniProt P08246)
# T1 sequence (P08246 30-267): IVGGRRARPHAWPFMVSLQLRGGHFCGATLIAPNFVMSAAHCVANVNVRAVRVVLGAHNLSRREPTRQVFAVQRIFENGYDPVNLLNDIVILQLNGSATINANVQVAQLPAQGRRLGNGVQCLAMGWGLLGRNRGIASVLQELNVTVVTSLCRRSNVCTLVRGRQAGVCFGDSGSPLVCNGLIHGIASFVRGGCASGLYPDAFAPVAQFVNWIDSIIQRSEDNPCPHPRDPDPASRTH
# Assay: In vitro assay of human neutrophil elastase (HNE)
# Type: biochemical
# Details: 118 nM purified human neutrophil elastase, pH 8.6, 15 min incubation at 30° C., MeO-succinyl-alanyl-alanyl-prolyl-valyl-p-nitroanilide substrate; read-out: HNE IC50
# Procedure, shortened: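 Residual activity was taken as the 10 min rate of absorbance rise at 405 nm after adding 0.6 mM MeO-succinyl-AAPV-p-nitroanilide. Curve fitting of activity against concentration gave IC50.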
row,SMILES,IC50 [nM]
1,"CCCCOc1ccc(S(=O)(=O)N2CC[C@H]3[C@H]2[C@@H](CCC)C(=O)N3S(C)(=O)=O)cc1 (relative stereo) [Example 214, rel-(3R,3aR,6aS)-4-(4-Butoxy-benzenesulfonyl)-1-methanesulfonyl-3-propyl-hexahydro-pyrrolo[3,2-b]pyrrol-2-one]",464
2,"CCC[C@H]1C(=O)N(S(C)(=O)=O)[C@H]2CCN(S(=O)(=O)c3ccc(C(F)(F)F)cc3)[C@H]12 (relative stereo) [Example 216, rel-(3R,3aR,6aS)-1-Methanesulfonyl-3-propyl-4-(4-trifluoromethyl-benzenesulfonyl)-hexahydro-pyrrolo[3,2-b]pyrrol-2-one]",87
3,"CCC[C@H]1C(=O)N(S(C)(=O)=O)[C@H]2CCN(S(=O)(=O)c3cccc([N+](=O)[O-])c3)[C@H]12 (relative stereo) [Example 222, rel-(3R,3aR,6aS)-1-Methanesulfonyl-4-(3-nitro-benzenesulfonyl)-3-propyl-hexahydro-pyrrolo[3,2-b]pyrrol-2-one]",107
4,"CCC[C@H]1C(=O)N(S(C)(=O)=O)[C@H]2CCN(S(=O)(=O)c3cccc(C(F)(F)F)c3)[C@H]12 (relative stereo) [Example 223, rel-(3R,3aR,6aS)-1-Methanesulfonyl-3-propyl-4-(3-trifluoromethyl-benzenesulfonyl)-hexahydro-pyrrolo[3,2-b]pyrrol-2-one]",62
5,"CCC[C@H]1C(=O)N(S(C)(=O)=O)[C@H]2CCN(S(=O)(=O)c3cc(C(F)(F)F)cc(C(F)(F)F)c3)[C@H]12 (relative stereo) [Example 224, rel-(3R,3aR,6aS)-4-(3,5-Bis-trifluoromethyl-benzenesulfonyl)-1-methanesulfonyl-3-propyl-hexahydro-pyrrolo[3,2-b]pyrrol-2-one]",410
6,"CCC[C@H]1C(=O)N(S(C)(=O)=O)[C@H]2CCN(S(=O)(=O)c3ccccc3C(F)(F)F)[C@H]12 (relative stereo) [Example 225, rel-(3R,3aR,6aS)-1-Methanesulfonyl-3-propyl-4-(2-trifluoromethyl-benzenesulfonyl)-hexahydro-pyrrolo[3,2-b]pyrrol-2-one]",120
7,"CCC[C@H]1C(=O)N(S(C)(=O)=O)[C@H]2CCN(S(=O)(=O)c3ccccc3[N+](=O)[O-])[C@H]12 (relative stereo) [Example 226, rel-(3R,3aR,6aS)-1-Methanesulfonyl-4-(2-nitro-benzenesulfonyl)-3-propyl-hexahydro-pyrrolo[3,2-b]pyrrol-2-one]",87
8,"CC(C)[C@H]1C(=O)N(S(C)(=O)=O)[C@H]2CCN(S(=O)(=O)c3ccc(S(C)(=O)=O)cc3)[C@H]12 (relative stereo) [Example 227, rel-(3R,3aR,6aS)-3-Isopropyl-1-methanesulfonyl-4-(4-methanesulfonyl-benzenesulfonyl)-hexahydro-pyrrolo[3,2-b]pyrrol-2-one]",118
9,"CC(C)[C@H]1C(=O)N(S(C)(=O)=O)[C@H]2CCN(S(=O)(=O)c3ccc(C(F)(F)F)cc3)[C@H]12 (relative stereo) [Example 228, rel-(3R,3aR,6aS)-3-Isopropyl-1-methanesulfony]4-(4-trifluoromethyl-benzenesulfonyl)-hexahydro-pyrrolo[3,2-b]pyrrol-2-one]",68
10,"CC(C)[C@H]1C(=O)N(S(C)(=O)=O)[C@H]2CCN(S(=O)(=O)c3ccc([N+](=O)[O-])cc3)[C@H]12 (relative stereo) [Example 229, rel-(3R,3aR,6aS)-3-Isopropyl-1-methanesulfonyl-4-(4-nitro-benzenesulfonyl)-hexahydro-pyrrolo[3,2-b]pyrrol-2-one]",167
11,"CCCCOc1ccc(S(=O)(=O)N2CC[C@H]3[C@H]2[C@@H](C(C)C)C(=O)N3S(C)(=O)=O)cc1 (relative stereo) [Example 230, rel-(3R,3aR,6aS)-4-(4-Butoxy-benzenesulfonyl)-3-isopropyl-1-methanesulfonyl-hexahydro-pyrrolo[3,2-b]pyrrol-2-one]",92
12,"CCC[C@H]1C(=O)N(S(C)(=O)=O)[C@H]2CCN(C(=O)c3cccs3)[C@H]12 (relative stereo) [Example 232, rel-(3R,3aR,6aS)-1-Methanesulfonyl-3-propyl-4-(thiophene-2-carbonyl)-hexahydro-pyrrolo[3,2-b]pyrrol-2-one]",78

# Compounds with a lower IC50, results first:
row,IC50 [nM],SMILES
1,30,"CCC[C@H]1C(=O)N(S(C)(=O)=O)[C@H]2CCN(S(=O)(=O)c3ccc(N4CCCC4=O)cc3)[C@H]12 (relative stereo) [Example 212, rel-(3R,3aR,6aS)-1-Methanesulfonyl-4-[4-(2-oxo-pyrrolidin-1yl)-benzenesufonyl]-3-propyl-hexahydro-pyrrolo[3,2-b]pyrrol-2-one]"
2,40,"CCC[C@H]1C(=O)N(S(C)(=O)=O)[C@H]2CCN(S(=O)(=O)c3ccc(NC(C)=O)c(Cl)c3)[C@H]12 (relative stereo) [Example 213, rel-N-[2-Chloro-4-(4-methanesulfonyl-5-oxo-6R-propyl-hexahydro-(3aS,6aR)-pyrrolo[3,2-b]pyrrole-1-sulfonyl)-phenyl]-acetamide]"
3,28,"CCC[C@H]1C(=O)N(S(C)(=O)=O)[C@H]2CCN(S(=O)(=O)c3ccc(Cl)cc3)[C@H]12 (relative stereo) [Example 215, rel-(3R,3aR,6aS)-4-(4-Chloro-benzenesulfonyl)-1-methanesulfonyl-3-propyl-hexahydro-pyrrolo[3,2-b]pyrrol-2-one]"
4,40,"CCC[C@H]1C(=O)N(S(C)(=O)=O)[C@H]2CCN(S(=O)(=O)c3ccc(S(C)(=O)=O)cc3)[C@H]12 (relative stereo) [Example 217, rel-(3R,3aR,6aS)-1-Methanesulfonyl-4-(4-methanesulfonyl-benzenesulfonyl)-3-propyl-hexahydro-pyrrolo[3,2-b]pyrrol-2-one]"
5,26,"CCC[C@H]1C(=O)N(S(C)(=O)=O)[C@H]2CCN(S(=O)(=O)c3ccc(C#N)cc3)[C@H]12 (relative stereo) [Example 218, rel-4-(4-Methanesulfonyl-5-oxo-6R-propyl-hexahydro-(3aS,6aR)-pyrrolo[3,2-b]pyrrole-1-sulfonyl)-benzonitrile]"
6,10,"CCC[C@H]1C(=O)N(S(C)(=O)=O)[C@H]2CCN(S(=O)(=O)c3ccccc3)[C@H]12 (relative stereo) [Example 219, rel-(3R,3aR,6aS)-4-Benzenesulfonyl-1-methanesulfonyl-3-propyl-hexahydro-pyrrolo[3,2-]pyrrol-2-one]"
7,12,"CCC[C@H]1C(=O)N(S(C)(=O)=O)[C@H]2CCN(S(=O)(=O)c3ccc(OC)cc3)[C@H]12 (relative stereo) [Example 220, rel-(3R,3aR,6aS)-1-Methanesulfonyl-4-(4-methoxy-benzenesulfonyl)-3-propyl hexahydro-pyrrolo[3,2-b]pyrrol-2-one]"
8,27,"CCC[C@H]1C(=O)N(S(C)(=O)=O)[C@H]2CCN(S(=O)(=O)c3ccc(N(C)C)cc3)[C@H]12 (relative stereo) [Example 221, rel-(3R, 3aR,6aS)-4-[4-Dimethylamino-benzenesufonyl)-1-methanesulfonyl-3-propyl-hexahydro-pyrrolo[3,2-b]pyrrol-2-one]"
9,35,"CCC[C@H]1C(=O)N(S(C)(=O)=O)[C@H]2CCN(C(=O)c3ccco3)[C@H]12 (relative stereo) [Example 231, rel-(3R,3aR,6aS)-4-(Furan-2-carbonyl)-1-methanesulfonyl-3-propyl-hexahydro-pyrrolo[3,2-b]pyrrol-2-one]"
